As usually defined, the pIC50 is −log10 of the IC50, conventionally taken in molar units.

Structures are written as SMILES. pIC50: −log10 of the molar value.

The values below come from ChEMBL document CHEMBL3751724, “Bioactive lignan derivatives from the stems of Firmiana simplex” (Bioorg Med Chem Lett, 2016).

A short description of data set [1]: Cytotoxicity against LPS-stimulated mouse BV2 cells assessed as cell viability at 20 uM by MTT assay relative to control. The conditions noted are these: read-out: Activity. Type of data set: cell-based, BV-2. Background: Tetrazolium assays rely on reduction of a dye to a coloured formazan, in cell work by metabolically active cells.
A short description of data set [2]: Antineuroinflammatory activity in mouse BV2 cells assessed as inhibition of LPS-induced nitric oxide production after 24 hrs by Griess assay. Type of data set: functional, cell-based. The conditions noted are these: BV-2, 24 h. A general note: Nitrite, measured by Griess reagent, commonly stands in for NO production.

For `COc1cc([C@@H]2Oc3c(OC)cc(/C=C/C=O)cc3[C@H]2CO)ccc1O`, the viability at 20 µM in data set [1] was found to be 115%. Also, the pIC50 in data set [2] was 5.15.
With `c1cc2c(cc1[C@@H]1OC[C@@H]3[C@H]1CO[C@H]3c1ccc3c(c1)OCO3)OCO2`, the viability at 20 µM in data set [1] came out at 126%. The pIC50 in data set [2] was 4.58.
`COc1cc(C(O)C(CO)Oc2c(OC)cc([C@@H]3Oc4c(OC)cc(/C=C/C=O)cc4[C@H]3CO)cc2OC)ccc1O` (stereo partly drawn): the viability at 20 µM in data set [1] came out at 129%. In data set [2], the pIC50 is 4.82.
For `COc1cc([C@@H](O)[C@@H](CO)Oc2ccc(/C=C/C=O)cc2OC)ccc1O`, the viability at 20 µM in data set [1] turned out to be 123%. In data set [2], the pIC50 was 5.98.
In the case of `COc1cc([C@H](O)[C@@H](CO)Oc2ccc(/C=C/C=O)cc2OC)ccc1O`, in data set [1], the viability at 20 µM was 129%. In data set [2], the pIC50 was 6.03.
For `COc1cc([C@H]2OC[C@H]3[C@@H]2CO[C@@H]3c2ccc(O)c(OC)c2)ccc1O`, in data set [1], the viability at 20 µM turned out to be 111%. The pIC50 in data set [2] is 4.51.
`Oc1ccc([C@@H]2OC[C@H]3[C@H](c4ccc5c(c4)OCO5)OC[C@@]23O)cc1`: the viability at 20 µM in data set [1] was found to be 109%. Besides, the pIC50 in data set [2] was 4.45.
As for `COc1cc(C(O)C(CO)Oc2c(OC)cc([C@@H]3OC[C@@H]4[C@H]3CO[C@H]4c3ccc(O)c(OC)c3)cc2OC)ccc1O` (stereo partly drawn), the viability at 20 µM in data set [1] amounted to 121%. For the same compound, the pIC50 in data set [2] was 4.71.
Turning to `COc1cc([C@@H](O)[C@H](CO)Oc2c(OC)cc([C@@H]3OC[C@H]4[C@H](c5ccc(O)c(OC)c5)OC[C@@]34O)cc2OC)ccc1O`, the viability at 20 µM in data set [1] was 108%. The pIC50 in data set [2] is < 3.30.
The corresponding values for `COc1cc([C@@H]2Oc3c(OC)cc(/C=C/C=O)cc3[C@H]2CO)cc(OC)c1O` are 120% and 5.00.
In the case of `COc1cc(C(OC)[C@H]2CO[C@H](c3ccc(O)c(OC)c3)[C@H]2CO)ccc1O` (stereo partly drawn), the viability at 20 µM in data set [1] is 115%. Also, the pIC50 in data set [2] was 4.48.
Take `COc1cc([C@@H]2OC[C@@H]3[C@H]2CO[C@H]3c2cc(OC)c(O)c(OC)c2)cc(OC)c1O`: the viability at 20 µM in data set [1] came out at 110%. Moreover, the pIC50 in data set [2] is 4.56.
The corresponding values for `COc1cc([C@@H](O)[C@@H](CO)Oc2ccc(/C=C/CO)cc2OC)ccc1O` (relative stereo) are 117% and 4.49.
As to `COc1cc([C@@H](O)[C@@H](CO)Oc2c(OC)cc(/C=C/CO)cc2OC)ccc1O` (relative stereo), the viability at 20 µM in data set [1] came out at 120%. Also, the pIC50 in data set [2] was 4.63.
As to `COc1cc([C@@H](O)[C@@H](CO)Oc2ccc(C=O)cc2OC)ccc1O` (relative stereo), the viability at 20 µM in data set [1] is 116%. Besides, in data set [2], the pIC50 is 4.32.
For the compound `COc1cc(/C=C/CO)ccc1O[C@H](CO)[C@@H](O)c1cc(OC)c(O)c(OC)c1` (relative stereo), the viability at 20 µM in data set [1] came out at 123%. The pIC50 in data set [2] is 5.04.
The corresponding values for `COc1cc([C@@H]2OC[C@@]3(O)[C@H](c4ccc5c(c4)OCO5)OC[C@@H]23)ccc1O` (relative stereo) are 108% and < 3.30.
Take `COc1cc([C@@H]2OC[C@@H]3[C@H]2CO[C@H]3c2ccc(O)c(OC)c2)ccc1O` [(+)-PINORESINOL]: the viability at 20 µM in data set [1] was found to be 115%. For the same compound, the pIC50 in data set [2] is 4.60.
On to `COc1cc([C@@H]2OC[C@@H]3[C@H]2CO[C@H]3c2ccc3c(c2)OCO3)ccc1O` [PIPERITOL], for which the viability at 20 µM in data set [1] worked out at 113%. Further, the pIC50 in data set [2] is 4.49.
